According to patent US9169315B2, “Heparin cofactor II fragments with anti-inflammatory and anti-coagulant activity” (XIMMUNE AB, priority 2009, dated 2015):
“Also recorded” adds a separate entry of the source. No end group written: not given here.

Assays:
[1] = tested on: RAW 264.7 macrophages; test: Cytokines in supernatants of LPS-stimulated macrophages; format: cell-based, mouse; details: 10 ng/ml E. coli LPS
Experimental: RAW 264.7 macrophages were stimulated with 10 ng/ml E. coli LPS in combination with indicated concentrations of the two peptides. (B) Similar as above, but using P. aeruginosa LPS(C) KYE28 reduced TNF-αproduction, MCP-1 and IL-10 production in macrophages. RAW 264. 7 cells were stimulated with 10 ng/ml E. coli LPS and cytokines were analysed in the cell supernatants
The cytokines IL-6, IL-10, MCP-1, INF-γ, and TNF-α were measured in cell culture supernatants from RAW264.7 cells and plasma from mice injected with LPS or P. aeruginosa (with or without peptide treatment) using the Cytometric bead array; Mouse Inflammation Kit (Becton Dickinson AB) according to the manufacturer's instructions. All plasma samples were stored at −20° C. before the analysis.

[2] = tested on: P. aeruginosa 15159; test: P. aeruginosa infection model (sepsis); format: in vivo, mice
Experimental: Mice were inoculated with P. aeruginosa and KYE28 (0.5 mg) was administrated sc 1 h after infection. (A) Bacterial counts in the indicated organs were analyzed after a time period of 4, 8, and 12 h. (B) In parallel, the indicated cytokines were analyzed in blood.
(A) Bacterial counts in the indicated organs were analyzed after a time period of 12 h. (B) Effects on platelets, lymphocytes, monocytes and neutrohils are shown. (C) In parallel, the indicated cytokines were analyzed in blood. […]
(A) P. aeruginosa 15159 bacteria (in PBS, ˜2×10^4 or 2×10^8 cfu/ml) were kept on ice until injection. Hundred microliter of the bacterial suspension were injected intraperitoneally (ip) into C57/Bl6 mice. At ˜10 min after the bacterial injection, 0.5 mg of NLF20 or PBS alone was injected ip into the mice. Liver, spleen and kidney were harvested, placed on ice, homogenized, and colony-forming units (cfu) determined 12 h after infection. (B) In a similar infection model (2×10^8 cfu/ml of P. aeruginosa) intraperitoneal (ip) administration after 30 min was compared with subcutaneous injection (sc) after 1 h. 0.5 mg of NLF20 was used. […] Mice were injected intraperitoneally with P. aeruginosa as above followed by ip or sc administration of NLF20 (500 μg). Survival was followed for 7 days. […] (D) NLF20 effects on TNF-α and IL-10 were analyzed in blood. (E) Thrombocytes were analyzed in blood. Treatment with NLF20 (ip and sc) increased thrombocyte levels.
Animals were Housed Under Standard Conditions of Light and Temperature and Had free access to standard laboratory chow and water. P. aeruginosa 15159 bacteria were grown to logarithmic phase (OD620˜0.5), harvested, washed in PBS, diluted in the same buffer to 2×10^8 cfu/ml, and kept on ice until injection. Hundred microliter of the bacterial suspension was injected intraperitoneally (i.p.) into female bI6 mice. […] In order to study bacterial dissemination to target organs spleen, liver and kidney were harvested, placed on ice, homogenized, and colony-forming units determined. The P-value was determined using the Mann-Whitney U-test. Data from three independent experiments were pooled.
Animals were housed under standard conditions of light and temperature AND had free access to standard laboratory chow and water. P. aeruginosa 15159 bacteria were grown to logarithmic phase (OD620˜0.5), harvested, washed in PBS, diluted in the same buffer to 2×10^8 cfu/ml, and kept on ice until injection. Hundred microliter of the bacterial suspension was injected intraperitoneally (i.p.) into female bI6 mice. Immediately subsequent the bacterial injection, 0.5 mg NLF20 (in 10 mM Tris, pH 7.4) or buffer alone was injected i.p. into the mice. In order to study bacterial dissemination to target organs spleen, liver and kidney were harvested, placed on ice, homogenized, and colony-forming units determined. The P-value was determined using the Mann-Whitney U-test. Data from three independent experiments were pooled.

[3] = tested on: P. aeruginosa; test: Electron microscopy of peptide-treated bacteria; format: cell-based; details: 30 μM, 2 h, 37° C.
Experimental: (A) Permeabilizing effects of peptides on E. coli. Bacteria were incubated with the NLF20 and permeabilization was assessed using the impermeant probe FITC. (B) Electron microscopy analysis. P. aeruginosa and S. aureus bacteria were incubated for 2 h at 37° C. with 30 μM of NLF20 and visualized by negative staining. LL-37 is shown for comparison. Scale bar represents 1 μm. Control; Buffer control.

[4] = tested on: P. aeruginosa, E. coli, S. pyogenes, S. aureus, C. albicans; test: Antibacterial effects in human blood infected by bacteria; format: cell-based; details: 50% citrate blood
Experimental: (§1) (A) Antibacterial effects of NLF20 in presence of the indicated bacteria in human blood (made 50% in PBS) are presented. The indicated microbes (2×10^8 cfu/ml) were added to 50% citrate blood, followed by addition of peptide at 30, 60 or 120 μM. The number of cfu was determined after an incubation period of 1 h. (B) In an identical setup, hemolysis effects were studied. The bacteria were added to 50% citrate blood, followed by addition of peptide. Hemolysis was assessed after 1 hour.
E. coli ATCC 25922, P. aeruginosa 15159, or S. aureus ATCC 29213 bacteria were grown to mid-logarithmic phase in Todd-Hewitt (TH) medium (Becton and Dickinson, Maryland, USA). The microorganisms were then washed and diluted in 10 mM Tris, pH 7.4 containing 5 mM glucose. Following this, bacteria (50 μl; 2×10^6 cfu/ml) were incubated, at 37° C. for 2 hours, with NLF20 or LL-37 (at 0.03, 0.06, 0.3, 0.6, 3, 6, 30, 60 μM) in 10 mM Tris, 0.15 M NaCl, with or without 20% human citrate-plasma. […] To quantify the bactericidal activity, serial dilutions of the incubation mixtures were plated on TH agar, followed by incubation at 37° C. overnight and the number of colony-forming units was determined. […] Significance was determined using the statistical software SigmaStat (SPSS Inc., Chicago, Ill., USA).

[5] = tested on: human blood; test: Hemolysis in human blood infected by bacteria; format: cell-based; details: peptide dose of 120 μM
Experimental: as §1
In the experiments with blood infected by bacteria, citrate-blood was diluted (1:1) with PBS.

[6] = 0.5 mg sc 1 h after infection, particularly after 12 h
[7] = sc 1 h, or 1 and 7 h after inoculation

## KYEITTIHNLFRKLTHRLFRRNFGYTLR [KYE28]
[1]
  IL-10 production: reduced
  MCP-1 production: reduced
  TNF-α production: reduced
[2]; 0.5 mg sc 1 h after infection, 4, 8 and 12 h
  Bacterial levels in spleen, kidney and liver: did not significantly reduce bacterial levels
[2]; 0.5 mg sc 1 h after infection, after 12 h
  IL-10 in blood: not significantly modulated
[2]; [6]
  IFN-γ in blood: concomitant reduction of cytokine levels
  IL-6 in blood: concomitant reduction of cytokine levels
  MCP-1 in blood: concomitant reduction of cytokine levels
  TNF-α in blood: concomitant reduction of cytokine levels
[2]; one dose, sc 1 h after inoculation
  Survival: did not increase survival
[2]; one dose, sc 1 h after inoculation, 12 h
  Bacterial cfu in organs: did not significantly reduce bacterial cfu
[2]; repeated treatment, sc 1 and 7 h after inoculation, 12 h
  Bacterial cfu in organs: moderate reduction of cfu numbers
[2]; [7]
  Cytokines in blood: dramatic and highly significant reduction of cytokines in blood
  Platelets: slight, but significant increase in platelets
[2]; two-dose regime, sc 1 and 7 h after infection
  Survival / mortality: significantly reduced mortality; also recorded: significant delay of septic symptoms as well as delayed mortality, and eventually also increase in survival

## NLFRKLTHRLFRRNFGYTLR [NLF20]
[3]
  Membrane damage by electron microscopy: extensive membrane damage
[4]; P. aeruginosa, E. coli, S. pyogenes, peptide dose 120 μM, 1 h
  Antibacterial effect in infected human blood: almost complete eradication of P. aeruginosa, E. coli, as well as S. pyogenes
[4]; S. aureus and C. albicans
  Antibacterial/antifungal effect in infected human blood: not active
[5]
  Accompanying hemolysis in infected human blood: ≤ 2%
[2]; 0.5 mg given subcutaneously 1 h after infection
  Bacterial cfu in organs: reductions in cfu
[2]; 0.5 mg ip shortly after bacterial injection, 12 h
  Bacterial numbers in spleen, liver and kidney: significantly lower bacterial numbers in the spleen, liver, and kidney
[2]; ip and sc
  Thrombocytes in blood: thrombocytes were increased
[2]; ip and sc administration
  IL-10 in blood: showing an increase (both administrations)
[2]; ip treatment
  TNF-α in blood: a reduction was noted after ip treatment
[2]; one dose (500 μg) ip, followed 7 days
  Mortality: significantly reduce mortality
[2]; one dose (500 μg) sc, followed 7 days
  Survival: prolong survival
[2]; subcutaneous injection after 1 h and then every 24 h for the three following days (FIG. 21)
  Survival: significantly increases survival
